For the test, the target named is T1, Interleukin-1 receptor-associated kinase 4 (Homo sapiens, UniProt Q9NWZ3).
T1 sequence (Q9NWZ3 whole entry): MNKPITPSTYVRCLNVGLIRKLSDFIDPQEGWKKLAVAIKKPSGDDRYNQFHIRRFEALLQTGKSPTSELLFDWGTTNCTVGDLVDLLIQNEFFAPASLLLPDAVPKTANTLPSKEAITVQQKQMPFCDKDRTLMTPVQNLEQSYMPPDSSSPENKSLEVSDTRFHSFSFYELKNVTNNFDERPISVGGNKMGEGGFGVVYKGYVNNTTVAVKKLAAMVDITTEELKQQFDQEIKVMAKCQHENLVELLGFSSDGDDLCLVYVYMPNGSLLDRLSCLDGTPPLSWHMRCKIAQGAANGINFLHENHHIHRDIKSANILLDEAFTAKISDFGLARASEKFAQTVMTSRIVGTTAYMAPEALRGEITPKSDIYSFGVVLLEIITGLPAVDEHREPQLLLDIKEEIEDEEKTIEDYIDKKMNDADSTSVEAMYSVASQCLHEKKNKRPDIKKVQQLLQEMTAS
The test is described as follows: Measurement of Human IRAK-4 Inhibitory Activity. Here is the method:
For the measurement of the activity of the human IRAK-4 (Invitrogen, Cat. PV3362), phosphorylation of the IRAK-4 peptide substrate (biotin-KKKKRFSFKKSFKC) by the enzyme in the presence of 10 μM ATP (Sigma-Aldrich, Cat. A7699) was measured by the TR-FRET method. The enzymatic reaction was performed in a reaction buffer containing 50 mM HEPES (pH 7.2), 1 mM DTT, 0.1 mM Na3VO4, 5 mM MgCl2, 1 mM MnCl2, and 0.1% bovine serum albumin. For the measurement of the IRAK-4 inhibitory activity, a test compound was added to the reaction buffer containing 1 nM IRAK-4, 0.5 μM peptide substrate, and 10 μM ATP, and the mixture was incubated at 23° C. for 30 minutes. Then, a detection solution containing an antibody labeled with europium cryptate (0.3 μg/mL, the antibody was prepared by using the IRAK-4 peptide substrate as the antigen), streptavidin-XL665 (2 μg/mL, CisBio, Cat. 610SAXLB), 50 mM HEPES (pH 7.2), 0.1% BSA, 120 mM KF, and 66.7 mM EDTA (all the concentrations of the reagents are final concentrations) was added to terminate the reaction, and then the mixture was further incubated at 23° C. for 60 minutes.

2 compounds from BindingDB's records for patent US20240025893 (Asahi Kasei Pharma, 2024) can be followed below.

Molecules are shown by their SMILES.

Consider `CO[C@H]1C[C@@H](C(=O)Nc2nc3ccc(-c4cnc(CO[C@H]5CCC[C@@H]5O)nc4)cc3s2)C1` [US20240025893, Example a-01-06], for which the IC50 is 3.29 nM.

Take `CC(C)(C)OC1CC(C(=O)Nc2cc3cc(-c4cnc(CO[C@H]5CCC[C@@H]5O)nc4)ccn3n2)C1` (some centres not stated) [US20240025893, Examplee-03-01]: half-maximal inhibition (IC50) was put at 1.75 nM.
